Measurements published in patent US8247211B2, “Glycopeptide antibiotics” (American Cyanamid Company, priority 2001, dated 2012).
Converted amounts (≈) assume the structure as drawn.

Key:
Test in all cases: In vitro antibacterial evaluation: minimum inhibitory concentration (MIC), broth dilution method
Format in all cases: cell-based
Enterococcus sp. = conditions: 18 hours at 35° C.
Outline: (§1)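 An MIC is reported for each organism as the least concentration giving inhibition, using broth dilution over 64-0.06 μg/mL with a 5×10^5 CFU/mL inoculum.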

Escherichia coli = conditions: 18 hours at 35° C.
Outline: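 Using Muller-Hinton II […] and an inoculum of 5×10^5 CFU/mL, antibiotic dilutions from 64 down to 0.06 μg/mL were tested following NCCLS M7-A2. The MIC is the lowest concentration inhibiting growth, including in methicillin-, penicillin- or vancomycin-resistant clinical isolates.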

Staphylococcus sp. = system: Staphylococcus sp.
Outline: as §1

Streptococcus sp. = conditions: 18 hours at 35° C.
Outline: as §1

[1] = broth dilution, inoculum 5×10^5 CFU/mL

## Cc1ccc(Oc2cccc(C3OCC4OC(OC5C(CO)OC(Oc6ccc(CC7NC(=O)C(C(C)c8ccccc8)NC(=O)CNC(=O)C(CO)NC(=O)C(C(O)C8CNC(=N)N8C8OC(CO)C(O)C(O)C8O)NC(=O)C(C(O)C8CNC(=N)N8)NC7=O)cc6I)C(O)C5O)C(O)C(O)C4O3)c2)cc1 (stereo not shown) [Example 197]
Enterococcus sp.; Enterococcus avium (GC 4558)
  MIC Enterococcus avium (GC 4558): 16 µg/mL (≈ 9.9 µM)
Enterococcus sp.; Enterococcus faecalis (ATCC 29212)
  MIC Enterococcus faecalis (ATCC 29212): >64 µg/mL
Enterococcus sp.; Enterococcus faecalis (GC 2242)
  MIC Enterococcus faecalis (GC 2242): >64 µg/mL
Enterococcus sp.; Enterococcus faecalis (GC 2691)
  MIC Enterococcus faecalis (GC 2691): >64 µg/mL
Enterococcus sp.; Enterococcus faecalis (GC 3059)
  MIC Enterococcus faecalis (GC 3059): >64 µg/mL
Enterococcus sp.; Enterococcus faecalis (GC 4552)
  MIC Enterococcus faecalis (GC 4552): >64 µg/mL
Enterococcus sp.; Enterococcus faecalis (GC 4553)
  MIC Enterococcus faecalis (GC 4553): 64 µg/mL (≈ 39.6 µM)
Enterococcus sp.; Enterococcus faecalis (GC 4554)
  MIC Enterococcus faecalis (GC 4554): >64 µg/mL
Enterococcus sp.; Enterococcus faecalis (GC 6189)
  MIC Enterococcus faecalis (GC 6189): 64 µg/mL (≈ 39.6 µM)
Enterococcus sp.; Enterococcus faecium (GC 2243)
  MIC Enterococcus faecium (GC 2243): 64 µg/mL (≈ 39.6 µM)
Enterococcus sp.; Enterococcus faecium (GC 4556)
  MIC Enterococcus faecium (GC 4556): >64 µg/mL
Enterococcus sp.; Enterococcus faecium (GC 4557)
  MIC Enterococcus faecium (GC 4557): 8 µg/mL (≈ 4.95 µM)
Enterococcus sp.; [1]
  MIC Enterococcus avium (GC 4558): 16 µg/mL (≈ 9.9 µM)
  MIC Enterococcus faecalis (ATCC 29212): >64 µg/mL
  MIC Enterococcus faecalis (GC 2242): >64 µg/mL
  MIC Enterococcus faecalis (GC 2691): >64 µg/mL
  MIC Enterococcus faecalis (GC 3059): >64 µg/mL
  MIC Enterococcus faecalis (GC 4552): >64 µg/mL
  MIC Enterococcus faecalis (GC 4553): 64 µg/mL (≈ 39.6 µM)
  MIC Enterococcus faecalis (GC 4554): >64 µg/mL
  MIC Enterococcus faecalis (GC 6189): 64 µg/mL (≈ 39.6 µM)
  MIC Enterococcus faecium (GC 2243): 64 µg/mL (≈ 39.6 µM)
  MIC Enterococcus faecium (GC 4556): >64 µg/mL
  MIC Enterococcus faecium (GC 4557): 8 µg/mL (≈ 4.95 µM)
Escherichia coli; Escherichia coli (ATCC 25922)
  MIC Escherichia coli (ATCC 25922): 32 µg/mL (≈ 19.8 µM)
Escherichia coli; Escherichia coli (GC 4559)
  MIC Escherichia coli (GC 4559): 64 µg/mL (≈ 39.6 µM)
Escherichia coli; Escherichia coli (GC 4560)
  MIC Escherichia coli (GC 4560): 16 µg/mL (≈ 9.9 µM)
Staphylococcus sp.; strain ATCC 29213
  MIC Staphylococcus aureus (ATCC 29213): 32 µg/mL (≈ 19.8 µM)
Staphylococcus sp.; strain GC 1131
  MIC Staphylococcus aureus (GC 1131): 16 µg/mL (≈ 9.9 µM)
Staphylococcus sp.; strain GC 3051
  MIC Staphylococcus aureus (GC 3051): 64 µg/mL (≈ 39.6 µM)
Staphylococcus sp.; strain GC 3053
  MIC Staphylococcus aureus (GC 3053): 64 µg/mL (≈ 39.6 µM)
Staphylococcus sp.; strain GC 4541
  MIC Staphylococcus aureus (GC 4541): 16 µg/mL (≈ 9.9 µM)
Staphylococcus sp.; strain GC 4542
  MIC Staphylococcus aureus (GC 4542): 64 µg/mL (≈ 39.6 µM)
Staphylococcus sp.; strain GC 4543
  MIC Staphylococcus aureus-SMITH (GC 4543): 16 µg/mL (≈ 9.9 µM)
Staphylococcus sp.; strain GC 4544
  MIC Staphylococcus aureus (GC 4544): 32 µg/mL (≈ 19.8 µM)
Staphylococcus sp.; strain GC 4545
  MIC Staphylococcus aureus (GC 4545): 32 µg/mL (≈ 19.8 µM)
Staphylococcus sp.; strain GC 4546
  MIC Staphylococcus haemolyticus (GC 4546): 32 µg/mL (≈ 19.8 µM)
Staphylococcus sp.; strain GC 4547
  MIC Coagulase Negative Staphylococcus (GC 4547): 32 µg/mL (≈ 19.8 µM)
Staphylococcus sp.; strain GC 4548
  MIC Coagulase Negative Staphylococcus (GC 4548): 8 µg/mL (≈ 4.95 µM)
Staphylococcus sp.; strain GC 4549
  MIC Coagulase Negative Staphylococcus (GC 4549): 8 µg/mL (≈ 4.95 µM)
Staphylococcus sp.; strain GC 4551
  MIC Coagulase Negative Staphylococcus (GC 4551): 16 µg/mL (≈ 9.9 µM)
Staphylococcus sp.; strain GC 6257
  MIC Coagulase Negative Staphylococcus (GC 6257): 4 µg/mL (≈ 2.48 µM)
Streptococcus sp.; Streptococcus agalactiae (GC 4564)
  MIC Streptococcus agalactiae (GC 4564): 16 µg/mL (≈ 9.9 µM)
Streptococcus sp.; Streptococcus pneumoniae (ATCC 6301)
  MIC Streptococcus pneumoniae (ATCC 6301): 4 µg/mL (≈ 2.48 µM)
Streptococcus sp.; Streptococcus pneumoniae (GC 1894)
  MIC Streptococcus pneumoniae (GC 1894): 8 µg/mL (≈ 4.95 µM)
Streptococcus sp.; Streptococcus pneumoniae (GC 4565)
  MIC Streptococcus pneumoniae (GC 4565): 8 µg/mL (≈ 4.95 µM)
Streptococcus sp.; Streptococcus pyogenes (GC 4563)
  MIC Streptococcus pyogenes (GC 4563): 16 µg/mL (≈ 9.9 µM)
Streptococcus sp.; [1]
  MIC Streptococcus agalactiae (GC 4564): 16 µg/mL (≈ 9.9 µM)
  MIC Streptococcus pneumoniae (ATCC 6301): 4 µg/mL (≈ 2.48 µM)
  MIC Streptococcus pneumoniae (GC 1894): 8 µg/mL (≈ 4.95 µM)
  MIC Streptococcus pneumoniae (GC 4565): 8 µg/mL (≈ 4.95 µM)
  MIC Streptococcus pyogenes (GC 4563): 16 µg/mL (≈ 9.9 µM)
